The target of test [1] is T1, Muscarinic acetylcholine receptor M2 (Homo sapiens) (UniProt P08172).
T1 sequence (whole entry): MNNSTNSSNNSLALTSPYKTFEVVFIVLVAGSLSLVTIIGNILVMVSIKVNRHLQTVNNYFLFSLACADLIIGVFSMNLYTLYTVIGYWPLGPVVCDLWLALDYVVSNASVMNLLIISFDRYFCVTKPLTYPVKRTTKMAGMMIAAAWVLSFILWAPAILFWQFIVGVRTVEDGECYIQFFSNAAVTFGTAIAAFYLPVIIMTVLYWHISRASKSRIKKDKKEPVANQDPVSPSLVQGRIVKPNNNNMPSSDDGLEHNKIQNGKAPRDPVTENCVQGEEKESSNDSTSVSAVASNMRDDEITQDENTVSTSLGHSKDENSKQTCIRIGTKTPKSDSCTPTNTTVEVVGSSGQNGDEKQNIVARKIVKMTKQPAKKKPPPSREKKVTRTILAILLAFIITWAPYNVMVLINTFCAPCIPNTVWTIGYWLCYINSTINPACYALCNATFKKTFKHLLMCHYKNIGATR
Briefly: Selectivity interaction (Panel of kinases, GPCRs, ion channels and transporters (enzymatic assay)) EUB0000266bCl CHRM2.

Test [2] deals with Epidermal growth factor receptor (Homo sapiens), P00533 [UNDEFINED MUTATION]. The following applies: at 10 µM.
The target in test [3] is Mitogen-activated protein kinase 8 (Homo sapiens, UniProt P45983). Briefly: Selectivity interaction (KinomeScan (DiscoverX)) EUB0000695a MAPK8. The note with it: at 100 nM.
In test [4] the target is T2, Serine/threonine-protein kinase TNNI3K (Homo sapiens) (UniProt Q59H18).
T2 sequence (whole entry): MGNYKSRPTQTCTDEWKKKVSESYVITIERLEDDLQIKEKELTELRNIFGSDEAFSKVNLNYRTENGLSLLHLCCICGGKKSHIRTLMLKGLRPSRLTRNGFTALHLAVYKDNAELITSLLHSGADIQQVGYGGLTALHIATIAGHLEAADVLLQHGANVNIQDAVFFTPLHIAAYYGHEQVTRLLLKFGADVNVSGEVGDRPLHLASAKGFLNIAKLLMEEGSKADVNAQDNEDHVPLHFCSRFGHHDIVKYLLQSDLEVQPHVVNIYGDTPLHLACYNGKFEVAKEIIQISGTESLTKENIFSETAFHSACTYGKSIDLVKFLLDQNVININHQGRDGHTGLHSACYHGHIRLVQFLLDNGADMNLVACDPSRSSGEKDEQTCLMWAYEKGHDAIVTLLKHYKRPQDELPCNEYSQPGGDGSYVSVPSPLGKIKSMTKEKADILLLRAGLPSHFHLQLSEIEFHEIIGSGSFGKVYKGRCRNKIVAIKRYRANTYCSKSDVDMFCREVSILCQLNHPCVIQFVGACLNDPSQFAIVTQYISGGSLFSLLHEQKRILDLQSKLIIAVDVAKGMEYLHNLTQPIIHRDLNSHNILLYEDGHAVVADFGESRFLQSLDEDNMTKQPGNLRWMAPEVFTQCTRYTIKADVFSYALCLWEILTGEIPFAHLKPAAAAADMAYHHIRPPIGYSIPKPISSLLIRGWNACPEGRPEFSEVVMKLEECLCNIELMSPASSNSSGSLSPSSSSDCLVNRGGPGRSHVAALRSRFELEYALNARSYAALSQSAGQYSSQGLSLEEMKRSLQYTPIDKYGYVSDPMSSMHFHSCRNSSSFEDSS
As to the kind of experiment: Selectivity interaction (KinomeScan (DiscoverX)) EUB0000666a TNNI3K. The note with it: at 10 µM.

Test [5] has as its target T3, Mitogen-activated protein kinase kinase kinase kinase 2 (Homo sapiens) (UniProt Q12851).
T3 sequence (whole entry): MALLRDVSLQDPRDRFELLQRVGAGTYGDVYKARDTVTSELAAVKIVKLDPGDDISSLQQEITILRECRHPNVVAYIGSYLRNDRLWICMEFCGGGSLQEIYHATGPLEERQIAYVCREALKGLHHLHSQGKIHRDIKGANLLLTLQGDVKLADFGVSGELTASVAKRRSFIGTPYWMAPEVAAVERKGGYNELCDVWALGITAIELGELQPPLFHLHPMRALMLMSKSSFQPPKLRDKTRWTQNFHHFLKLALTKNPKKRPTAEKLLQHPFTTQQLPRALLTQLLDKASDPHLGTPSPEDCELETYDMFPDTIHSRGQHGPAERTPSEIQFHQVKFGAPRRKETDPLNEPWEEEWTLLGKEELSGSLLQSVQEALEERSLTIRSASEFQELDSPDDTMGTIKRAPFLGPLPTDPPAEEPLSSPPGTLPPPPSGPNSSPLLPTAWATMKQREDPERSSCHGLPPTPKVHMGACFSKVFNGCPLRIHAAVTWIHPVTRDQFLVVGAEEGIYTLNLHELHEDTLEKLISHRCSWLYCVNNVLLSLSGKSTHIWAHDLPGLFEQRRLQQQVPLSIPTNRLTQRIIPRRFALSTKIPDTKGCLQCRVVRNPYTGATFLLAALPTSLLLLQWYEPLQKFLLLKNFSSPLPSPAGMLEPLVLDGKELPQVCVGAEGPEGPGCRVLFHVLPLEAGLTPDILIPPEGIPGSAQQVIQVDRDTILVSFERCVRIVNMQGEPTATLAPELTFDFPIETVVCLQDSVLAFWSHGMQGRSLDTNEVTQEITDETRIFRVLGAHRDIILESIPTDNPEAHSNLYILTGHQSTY
As to the kind of experiment: Selectivity interaction (ActivX KiNativ screen (kinase selectivity in THP-1 cell lysates)) EUB0000639a MAP4K2. Format: subcellular. The following applies: lysate, at 0.2 µM.

In test [6] the target is Fibroblast growth factor receptor 1 (Homo sapiens, UniProt P11362). As to the kind of experiment: Selectivity interaction (Kinase panel (DSF assay)) EUB0001559a FGFR1.

Consider six molecules from ChEMBL document CHEMBL5465560, “Selectivity Literature for EUbOPEN Chemogenomic Library” (2024).

A value given as a limit tells only on which side of the number the result lay.

Chain of Fibroblast growth factor receptor 1 (P11362 22-822 limits assumed): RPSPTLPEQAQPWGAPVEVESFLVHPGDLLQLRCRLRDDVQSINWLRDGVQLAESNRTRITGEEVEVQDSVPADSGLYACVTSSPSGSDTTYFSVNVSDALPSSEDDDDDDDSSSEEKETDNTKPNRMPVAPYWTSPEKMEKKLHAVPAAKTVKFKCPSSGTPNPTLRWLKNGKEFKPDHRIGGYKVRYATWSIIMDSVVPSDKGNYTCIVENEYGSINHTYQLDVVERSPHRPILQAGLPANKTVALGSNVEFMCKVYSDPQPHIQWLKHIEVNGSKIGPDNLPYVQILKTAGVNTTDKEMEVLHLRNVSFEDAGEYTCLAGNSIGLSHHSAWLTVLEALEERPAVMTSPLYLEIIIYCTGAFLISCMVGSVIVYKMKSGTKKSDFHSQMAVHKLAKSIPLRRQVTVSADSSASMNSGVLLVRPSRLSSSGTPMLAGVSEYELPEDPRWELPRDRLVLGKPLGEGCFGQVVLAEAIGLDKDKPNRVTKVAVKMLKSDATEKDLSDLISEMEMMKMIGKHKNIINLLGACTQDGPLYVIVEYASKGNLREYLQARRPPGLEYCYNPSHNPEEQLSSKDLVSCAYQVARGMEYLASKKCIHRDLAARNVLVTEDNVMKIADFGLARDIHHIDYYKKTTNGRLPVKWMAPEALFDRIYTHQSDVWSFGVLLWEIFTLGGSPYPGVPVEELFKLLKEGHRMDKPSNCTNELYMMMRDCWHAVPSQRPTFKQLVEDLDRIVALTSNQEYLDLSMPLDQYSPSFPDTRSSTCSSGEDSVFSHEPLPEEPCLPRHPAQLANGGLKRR
Chain of Epidermal growth factor receptor (Homo sapiens), P00533 [UNDEFINED MUTATION] (P00533 whole entry, looked up, change not shown): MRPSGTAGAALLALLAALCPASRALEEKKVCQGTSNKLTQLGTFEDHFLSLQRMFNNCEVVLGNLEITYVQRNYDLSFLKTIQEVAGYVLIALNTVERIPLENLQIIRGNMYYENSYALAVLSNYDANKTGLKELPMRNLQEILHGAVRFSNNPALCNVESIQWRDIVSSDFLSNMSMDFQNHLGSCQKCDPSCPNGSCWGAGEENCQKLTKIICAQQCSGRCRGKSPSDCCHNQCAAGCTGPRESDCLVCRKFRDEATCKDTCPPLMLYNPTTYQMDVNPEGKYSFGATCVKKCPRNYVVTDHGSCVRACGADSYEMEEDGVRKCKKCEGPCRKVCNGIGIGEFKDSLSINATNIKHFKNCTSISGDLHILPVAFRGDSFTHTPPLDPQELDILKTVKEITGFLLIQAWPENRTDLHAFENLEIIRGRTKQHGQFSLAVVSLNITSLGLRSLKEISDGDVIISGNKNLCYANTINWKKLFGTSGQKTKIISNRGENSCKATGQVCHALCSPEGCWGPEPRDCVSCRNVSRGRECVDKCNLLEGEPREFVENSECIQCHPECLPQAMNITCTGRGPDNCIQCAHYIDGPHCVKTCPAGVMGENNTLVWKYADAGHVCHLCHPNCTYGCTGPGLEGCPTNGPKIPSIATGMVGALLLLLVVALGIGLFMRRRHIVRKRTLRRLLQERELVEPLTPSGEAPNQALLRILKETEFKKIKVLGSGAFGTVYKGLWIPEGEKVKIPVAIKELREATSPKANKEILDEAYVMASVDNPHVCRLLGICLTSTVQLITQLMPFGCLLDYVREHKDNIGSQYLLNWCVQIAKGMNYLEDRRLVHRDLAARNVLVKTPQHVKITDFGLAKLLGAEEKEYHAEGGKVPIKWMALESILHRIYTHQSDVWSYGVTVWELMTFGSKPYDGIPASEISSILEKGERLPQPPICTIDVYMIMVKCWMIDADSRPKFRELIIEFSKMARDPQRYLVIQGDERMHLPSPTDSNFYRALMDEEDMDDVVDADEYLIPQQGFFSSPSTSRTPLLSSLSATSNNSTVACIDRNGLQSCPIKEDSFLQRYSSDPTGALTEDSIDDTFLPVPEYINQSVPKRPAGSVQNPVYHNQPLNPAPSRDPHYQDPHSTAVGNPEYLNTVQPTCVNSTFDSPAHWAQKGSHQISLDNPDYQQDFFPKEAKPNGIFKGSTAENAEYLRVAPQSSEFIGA
Chain of Mitogen-activated protein kinase 8 (P45983 whole entry): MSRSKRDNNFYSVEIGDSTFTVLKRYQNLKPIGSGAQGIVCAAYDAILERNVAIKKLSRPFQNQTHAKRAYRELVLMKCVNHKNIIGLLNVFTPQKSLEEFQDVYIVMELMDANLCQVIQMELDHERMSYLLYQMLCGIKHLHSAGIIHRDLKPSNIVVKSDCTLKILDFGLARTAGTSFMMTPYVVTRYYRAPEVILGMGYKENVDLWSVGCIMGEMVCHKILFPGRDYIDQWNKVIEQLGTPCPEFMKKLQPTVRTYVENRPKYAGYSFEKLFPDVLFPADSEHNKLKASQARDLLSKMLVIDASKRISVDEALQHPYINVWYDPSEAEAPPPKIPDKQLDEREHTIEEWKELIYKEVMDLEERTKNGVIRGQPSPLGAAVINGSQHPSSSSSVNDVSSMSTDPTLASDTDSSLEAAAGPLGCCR

Regarding `CCn1c(-c2nc3cc(C(=O)N4CCCC(N)C4)ccc3n2C)cc2ccccc21` (stereo unspecified), the pXC50 in test [1] was less than 4.8 M. For the molecule `Cc1cc([C@@H](C)Nc2ccccc2C(=O)O)c2nc(N3CCOCC3)cc(=O)n2c1` [AZD-6482], the % of control in test [2] worked out at 100%.

Consider `Cc1cc(F)c(C(=O)Nc2cccc(-c3nncn3C(C)C)n2)cc1-n1cnc(C2CC2)c1`, for which the % of control in test [3] came out at 72%.

Consider `O=C(NOC[C@H](O)CO)c1ccc(F)c(F)c1Nc1ccc(I)cc1F`, for which the % of control in test [4] was 51%. `CC[C@@H]1[C@H](F)C(=O)N[C@@H]1COc1nccc2cc(C(N)=O)c(OC)cc12` [ZIMLOVISERTIB]: in test [5], the % of inhibition was determined as 10.3%.

As to `CN(C(=O)c1cnn2cccnc12)c1cc2c(cc1N1CCOCC1)C(=O)N(C[C@@H](F)C(C)(C)O)C2`, the dTM in test [6] turned out to be 1 K.
